Results published in the kinase profiling compilation of Christmann-Franck et al. (2016).

Key:
Experiment in all cases: radiometric filter-binding kinase assay, Kinase HotSpot
Settings in all cases: compound 0.5 µM; ATP 10 µM
MAPK12 (human) = MAPK12 (human) (UniProt P53778)
DAPK3 (human) = DAPK3 (human) (UniProt O43293)
PRKX (human) = PRKX (human) (UniProt P51817)
SGK3 (human) = SGK3 (human) (UniProt Q96BR1)
PAK7 (human) = PAK7 (human) (UniProt Q9P286)
PRKD3 (human) = PRKD3 (human) (UniProt O94806)
EPHA3 (human) = EPHA3 (human) (UniProt P29320)
HCK (human) = HCK (human) (UniProt P08631)
IRAK4 (human) = IRAK4 (human) (UniProt Q9NWZ3)
TGFBR1 (human) = TGFBR1 (human) (UniProt P36897)
MST4 (human) = MST4 (human) (UniProt Q9P289)
EPHB4 (human) = EPHB4 (human) (UniProt P54760)
CAMK2D (human) = CAMK2D (human) (UniProt Q13557)
CAMK1G (human) = CAMK1G (human) (UniProt Q96NX5)
NLK (human) = NLK (human) (UniProt Q9UBE8)
MARK1 (human) = MARK1 (human) (UniProt Q9P0L2)
ROS1 (human) = ROS1 (human) (UniProt P08922)
EPHB3 (human) = EPHB3 (human) (UniProt P54753)
STK39 (human) = STK39 (human) (UniProt Q9UEW8)
PIM2 (human) = PIM2 (human) (UniProt Q9P1W9)
MYLK (human) = MYLK (human) (UniProt Q15746)
AURKB (human) = AURKB (human) (UniProt Q96GD4)
ACVR1B (human) = ACVR1B (human) (UniProt P36896)
CDK4 CCND3 (human) = CDK4 CCND3 (human) (UniProt P30281+P11802)
PRKCG (human) = PRKCG (human) (UniProt P05129)
CDK9 CCNT1 (human) = CDK9 CCNT1 (human) (UniProt P50750+O60563)
WEE1 (human) = WEE1 (human) (UniProt P30291)
TAOK1 (human) = TAOK1 (human) (UniProt Q7L7X3)
PLK3 (human) = PLK3 (human) (UniProt Q9H4B4)
MST1R (human) = MST1R (human) (UniProt Q04912)
MLTK (human) = MLTK (human) (UniProt Q9NYL2)
FGFR2 (human) = FGFR2 (human) (UniProt P21802)
MKNK2 (human) = MKNK2 (human) (UniProt Q9HBH9)
SIK2 (human) = SIK2 (human) (UniProt Q9H0K1)
YES1 (human) = YES1 (human) (UniProt P07947)
NEK1 (human) = NEK1 (human) (UniProt Q96PY6)
STK4 (human) = STK4 (human) (UniProt Q13043)
ERBB4 (human) = ERBB4 (human) (UniProt Q15303)
PRKCA (human) = PRKCA (human) (UniProt P17252)
CHEK1 (human) = CHEK1 (human) (UniProt O14757)
NEK2 (human) = NEK2 (human) (UniProt P51955)
CLK4 (human) = CLK4 (human) (UniProt Q9HAZ1)
CLK4 (human), sequence (Q9HAZ1 whole entry, looked up): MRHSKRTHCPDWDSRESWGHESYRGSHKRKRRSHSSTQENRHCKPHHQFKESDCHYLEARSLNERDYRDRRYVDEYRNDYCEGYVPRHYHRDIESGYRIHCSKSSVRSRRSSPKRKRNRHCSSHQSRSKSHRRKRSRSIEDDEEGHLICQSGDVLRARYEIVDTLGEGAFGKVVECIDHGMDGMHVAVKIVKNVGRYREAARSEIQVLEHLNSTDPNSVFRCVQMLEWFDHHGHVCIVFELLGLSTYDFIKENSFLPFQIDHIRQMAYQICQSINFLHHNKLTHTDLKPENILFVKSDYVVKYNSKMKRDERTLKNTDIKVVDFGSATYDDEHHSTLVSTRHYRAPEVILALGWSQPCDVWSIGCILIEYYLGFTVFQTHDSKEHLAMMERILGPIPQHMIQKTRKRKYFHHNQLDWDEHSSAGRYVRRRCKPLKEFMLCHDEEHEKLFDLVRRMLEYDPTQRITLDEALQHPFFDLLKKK

NEK2 (human), sequence (P51955 whole entry, looked up): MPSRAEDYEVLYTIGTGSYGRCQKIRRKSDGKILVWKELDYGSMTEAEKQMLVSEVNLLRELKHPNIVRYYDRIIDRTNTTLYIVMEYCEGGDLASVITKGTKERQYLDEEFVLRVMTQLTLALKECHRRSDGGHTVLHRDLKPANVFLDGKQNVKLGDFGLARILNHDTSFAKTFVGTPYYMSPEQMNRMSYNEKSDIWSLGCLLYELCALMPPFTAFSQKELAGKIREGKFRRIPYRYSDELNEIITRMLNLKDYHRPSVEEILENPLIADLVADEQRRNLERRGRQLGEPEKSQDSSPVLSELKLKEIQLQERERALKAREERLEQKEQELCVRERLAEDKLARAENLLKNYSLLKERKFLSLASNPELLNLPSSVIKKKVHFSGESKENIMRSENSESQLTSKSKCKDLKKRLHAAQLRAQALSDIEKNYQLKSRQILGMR
MST4 (human), sequence (Q9P289 whole entry, looked up): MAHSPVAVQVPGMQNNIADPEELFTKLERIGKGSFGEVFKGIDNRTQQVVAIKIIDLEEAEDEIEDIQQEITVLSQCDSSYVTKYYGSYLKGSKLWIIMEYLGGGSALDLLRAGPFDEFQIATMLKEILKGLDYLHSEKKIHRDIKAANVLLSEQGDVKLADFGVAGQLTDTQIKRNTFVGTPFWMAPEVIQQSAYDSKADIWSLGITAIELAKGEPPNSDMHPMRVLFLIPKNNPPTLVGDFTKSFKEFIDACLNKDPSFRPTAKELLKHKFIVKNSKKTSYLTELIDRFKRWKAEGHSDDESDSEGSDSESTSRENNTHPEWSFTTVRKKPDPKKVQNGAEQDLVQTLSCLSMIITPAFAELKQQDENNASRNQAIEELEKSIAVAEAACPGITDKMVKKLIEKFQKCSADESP
FGFR2 (human), sequence (P21802 whole entry, looked up): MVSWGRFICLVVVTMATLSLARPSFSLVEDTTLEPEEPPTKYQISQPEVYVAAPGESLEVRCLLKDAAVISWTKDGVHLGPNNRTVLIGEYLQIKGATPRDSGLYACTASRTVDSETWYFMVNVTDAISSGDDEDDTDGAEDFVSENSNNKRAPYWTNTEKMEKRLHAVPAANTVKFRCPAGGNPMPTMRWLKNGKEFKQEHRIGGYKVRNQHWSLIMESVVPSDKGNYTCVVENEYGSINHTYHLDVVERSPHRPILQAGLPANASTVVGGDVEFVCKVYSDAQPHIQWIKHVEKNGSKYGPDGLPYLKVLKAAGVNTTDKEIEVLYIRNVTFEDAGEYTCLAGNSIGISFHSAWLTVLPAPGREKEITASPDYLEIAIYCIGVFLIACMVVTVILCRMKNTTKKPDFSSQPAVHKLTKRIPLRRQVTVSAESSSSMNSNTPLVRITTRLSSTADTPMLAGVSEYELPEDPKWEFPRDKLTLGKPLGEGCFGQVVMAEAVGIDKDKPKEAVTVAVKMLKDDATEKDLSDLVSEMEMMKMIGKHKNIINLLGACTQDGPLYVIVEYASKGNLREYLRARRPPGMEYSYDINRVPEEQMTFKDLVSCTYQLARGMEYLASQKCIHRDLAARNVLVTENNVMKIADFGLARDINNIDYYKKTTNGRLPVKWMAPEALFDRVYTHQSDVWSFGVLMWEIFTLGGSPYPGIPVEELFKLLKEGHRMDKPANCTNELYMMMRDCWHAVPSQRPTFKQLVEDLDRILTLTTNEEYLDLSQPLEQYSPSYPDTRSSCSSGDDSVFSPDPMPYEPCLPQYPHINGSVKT
PIM2 (human), sequence (Q9P1W9 whole entry, looked up): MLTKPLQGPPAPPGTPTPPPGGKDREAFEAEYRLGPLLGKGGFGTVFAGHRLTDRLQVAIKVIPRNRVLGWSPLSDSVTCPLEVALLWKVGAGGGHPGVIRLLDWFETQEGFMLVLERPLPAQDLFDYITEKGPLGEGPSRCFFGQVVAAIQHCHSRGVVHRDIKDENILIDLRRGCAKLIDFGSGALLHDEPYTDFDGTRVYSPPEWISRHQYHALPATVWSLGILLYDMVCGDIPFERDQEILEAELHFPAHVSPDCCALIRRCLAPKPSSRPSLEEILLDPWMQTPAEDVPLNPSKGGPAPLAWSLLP
DAPK3 (human), sequence (O43293 whole entry, looked up): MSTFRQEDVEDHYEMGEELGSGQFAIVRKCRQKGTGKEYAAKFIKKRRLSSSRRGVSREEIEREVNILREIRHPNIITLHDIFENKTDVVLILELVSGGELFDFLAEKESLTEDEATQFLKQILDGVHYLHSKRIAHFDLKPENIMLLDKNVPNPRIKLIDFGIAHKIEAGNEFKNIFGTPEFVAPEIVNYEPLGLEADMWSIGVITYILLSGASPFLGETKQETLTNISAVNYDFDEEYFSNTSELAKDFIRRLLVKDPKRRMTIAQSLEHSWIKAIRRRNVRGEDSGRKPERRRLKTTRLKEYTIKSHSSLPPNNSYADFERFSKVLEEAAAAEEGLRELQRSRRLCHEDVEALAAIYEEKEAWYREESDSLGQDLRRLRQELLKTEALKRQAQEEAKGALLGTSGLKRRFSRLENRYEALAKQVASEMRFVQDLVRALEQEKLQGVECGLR
IRAK4 (human), sequence (Q9NWZ3 whole entry, looked up): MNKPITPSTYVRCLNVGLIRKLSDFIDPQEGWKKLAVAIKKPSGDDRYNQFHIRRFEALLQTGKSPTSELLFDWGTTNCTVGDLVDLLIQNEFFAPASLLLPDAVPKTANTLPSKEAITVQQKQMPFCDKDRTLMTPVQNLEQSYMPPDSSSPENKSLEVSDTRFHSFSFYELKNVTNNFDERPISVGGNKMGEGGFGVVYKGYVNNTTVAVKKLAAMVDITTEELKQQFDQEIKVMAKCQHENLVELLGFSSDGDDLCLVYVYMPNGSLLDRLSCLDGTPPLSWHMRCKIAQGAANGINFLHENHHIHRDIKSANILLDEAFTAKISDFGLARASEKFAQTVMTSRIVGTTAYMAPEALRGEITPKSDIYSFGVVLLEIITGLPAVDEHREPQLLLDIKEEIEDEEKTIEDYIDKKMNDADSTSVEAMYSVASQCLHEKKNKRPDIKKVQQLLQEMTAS
PLK3 (human), sequence (Q9H4B4 whole entry, looked up): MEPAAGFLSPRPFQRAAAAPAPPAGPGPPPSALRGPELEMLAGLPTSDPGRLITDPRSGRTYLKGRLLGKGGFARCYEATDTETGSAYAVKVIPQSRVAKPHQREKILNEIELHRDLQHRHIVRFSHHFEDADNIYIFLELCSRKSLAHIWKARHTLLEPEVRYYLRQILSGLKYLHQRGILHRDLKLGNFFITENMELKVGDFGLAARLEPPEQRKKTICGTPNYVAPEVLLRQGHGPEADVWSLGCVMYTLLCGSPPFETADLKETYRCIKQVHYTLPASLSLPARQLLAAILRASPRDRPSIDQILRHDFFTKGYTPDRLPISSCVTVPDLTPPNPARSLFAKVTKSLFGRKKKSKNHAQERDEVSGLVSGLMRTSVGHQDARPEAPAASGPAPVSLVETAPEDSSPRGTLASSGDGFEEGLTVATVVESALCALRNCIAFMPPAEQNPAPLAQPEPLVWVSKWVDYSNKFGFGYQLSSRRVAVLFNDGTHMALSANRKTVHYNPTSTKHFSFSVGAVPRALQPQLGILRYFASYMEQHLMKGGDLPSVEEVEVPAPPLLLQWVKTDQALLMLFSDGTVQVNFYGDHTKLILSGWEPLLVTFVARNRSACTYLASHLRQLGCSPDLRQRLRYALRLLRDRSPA
SGK3 (human), sequence (Q96BR1 whole entry, looked up): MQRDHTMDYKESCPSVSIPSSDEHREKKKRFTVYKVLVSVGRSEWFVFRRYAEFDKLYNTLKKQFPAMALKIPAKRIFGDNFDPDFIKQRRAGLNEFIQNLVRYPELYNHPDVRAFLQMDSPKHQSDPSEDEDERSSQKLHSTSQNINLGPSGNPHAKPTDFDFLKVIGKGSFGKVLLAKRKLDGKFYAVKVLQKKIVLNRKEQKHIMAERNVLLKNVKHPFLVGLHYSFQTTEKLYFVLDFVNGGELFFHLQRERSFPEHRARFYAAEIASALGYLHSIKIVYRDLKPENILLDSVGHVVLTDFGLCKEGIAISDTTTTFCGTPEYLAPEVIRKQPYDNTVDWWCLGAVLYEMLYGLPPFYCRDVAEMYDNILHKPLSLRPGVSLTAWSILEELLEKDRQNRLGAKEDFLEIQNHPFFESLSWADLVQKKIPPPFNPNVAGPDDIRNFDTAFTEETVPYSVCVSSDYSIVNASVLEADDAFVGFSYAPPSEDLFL
PRKX (human), sequence (P51817 whole entry, looked up): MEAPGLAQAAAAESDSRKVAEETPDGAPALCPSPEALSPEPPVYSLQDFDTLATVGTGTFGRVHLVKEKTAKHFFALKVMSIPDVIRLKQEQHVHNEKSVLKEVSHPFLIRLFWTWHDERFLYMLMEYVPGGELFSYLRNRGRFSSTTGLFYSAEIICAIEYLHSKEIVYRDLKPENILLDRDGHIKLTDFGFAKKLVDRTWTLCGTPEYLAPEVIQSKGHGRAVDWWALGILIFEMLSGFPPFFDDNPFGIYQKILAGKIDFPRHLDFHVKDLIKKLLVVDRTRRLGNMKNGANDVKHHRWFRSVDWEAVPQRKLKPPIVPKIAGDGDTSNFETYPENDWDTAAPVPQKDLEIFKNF

O=C1Nc2ccccc2/C1=C1\Nc2ccccc2\C1=N/O
residual activity (MAPK12 (human)): 99.5%
residual activity (DAPK3 (human)): 94.4%
residual activity (PRKX (human)): 88.8%
residual activity (SGK3 (human)): 102%
residual activity (PAK7 (human)): 89.3%
residual activity (PRKD3 (human)): 88.4%
residual activity (EPHA3 (human)): 92%
residual activity (HCK (human)): 60.2%
residual activity (IRAK4 (human)): 102%
residual activity (TGFBR1 (human)): 98.9%
residual activity (MST4 (human)): 75.3%
residual activity (EPHB4 (human)): 85.9%
residual activity (CAMK2D (human)): 60.4%
residual activity (CAMK1G (human)): 101%
residual activity (NLK (human)): 94.6%
residual activity (MARK1 (human)): 74.8%
residual activity (ROS1 (human)): 65.6%
residual activity (EPHB3 (human)): 92.3%
residual activity (STK39 (human)): 90.4%
residual activity (PIM2 (human)): 106%
residual activity (MYLK (human)): 65%
residual activity (AURKB (human)): 49.6%
residual activity (ACVR1B (human)): 102%
residual activity (CDK4 CCND3 (human)): 98.9%
residual activity (PRKCG (human)): 96.7%
residual activity (CDK9 CCNT1 (human)): 75.2%
residual activity (WEE1 (human)): 87.1%
residual activity (TAOK1 (human)): 102%
residual activity (PLK3 (human)): 93%
residual activity (MST1R (human)): 103%
residual activity (MLTK (human)): 89.6%
residual activity (FGFR2 (human)): 92.1%
residual activity (MKNK2 (human)): 82.1%
residual activity (SIK2 (human)): 89.8%
residual activity (YES1 (human)): 45.1%
residual activity (NEK1 (human)): 96.9%
residual activity (STK4 (human)): 18.8%
residual activity (ERBB4 (human)): 102%
residual activity (PRKCA (human)): 97.7%
residual activity (CHEK1 (human)): 65.3%
residual activity (NEK2 (human)): 109%
residual activity (CLK4 (human)): 59.2%

O=C(O)/C=C/c1cc(Br)c(Br)c(Br)c1Br
residual activity (MAPK12 (human)): 103%
residual activity (DAPK3 (human)): 90.2%
residual activity (PRKX (human)): 96%
residual activity (SGK3 (human)): 85.7%
residual activity (PAK7 (human)): 90.6%
residual activity (PRKD3 (human)): 87.9%
residual activity (EPHA3 (human)): 92.3%
residual activity (HCK (human)): 99.9%
residual activity (IRAK4 (human)): 86.6%
residual activity (TGFBR1 (human)): 90.8%
residual activity (MST4 (human)): 88.7%
residual activity (EPHB4 (human)): 81.2%
residual activity (CAMK2D (human)): 77.7%
residual activity (CAMK1G (human)): 94.1%
residual activity (NLK (human)): 99.1%
residual activity (MARK1 (human)): 93.7%
residual activity (ROS1 (human)): 94%
residual activity (EPHB3 (human)): 89.8%
residual activity (STK39 (human)): 97.9%
residual activity (PIM2 (human)): 52.8%
residual activity (MYLK (human)): 83.3%
residual activity (AURKB (human)): 88.5%
residual activity (ACVR1B (human)): 103%
residual activity (CDK4 CCND3 (human)): 97.9%
residual activity (PRKCG (human)): 89.4%
residual activity (CDK9 CCNT1 (human)): 58.9%
residual activity (WEE1 (human)): 99.1%
residual activity (TAOK1 (human)): 56.3%
residual activity (PLK3 (human)): 73.6%
residual activity (MST1R (human)): 87.1%
residual activity (MLTK (human)): 89.4%
residual activity (FGFR2 (human)): 99.5%
residual activity (MKNK2 (human)): 53.8%
residual activity (SIK2 (human)): 107%
residual activity (YES1 (human)): 96.9%
residual activity (NEK1 (human)): 85.4%
residual activity (STK4 (human)): 102%
residual activity (ERBB4 (human)): 104%
residual activity (PRKCA (human)): 79%
residual activity (CHEK1 (human)): 135%
residual activity (NEK2 (human)): 92%
residual activity (CLK4 (human)): 45.4%

Oc1ccc(Nc2nc(-c3ccc(Cl)cc3)cs2)cc1
residual activity (MAPK12 (human)): 106%
residual activity (DAPK3 (human)): 103%
residual activity (PRKX (human)): 99.6%
residual activity (SGK3 (human)): 98%
residual activity (PAK7 (human)): 105%
residual activity (PRKD3 (human)): 97.7%
residual activity (EPHA3 (human)): 110%
residual activity (HCK (human)): 96.1%
residual activity (IRAK4 (human)): 111%
residual activity (TGFBR1 (human)): 99.9%
residual activity (MST4 (human)): 105%
residual activity (EPHB4 (human)): 89.6%
residual activity (CAMK2D (human)): 98.8%
residual activity (CAMK1G (human)): 106%
residual activity (NLK (human)): 101%
residual activity (MARK1 (human)): 93.7%
residual activity (ROS1 (human)): 96.9%
residual activity (EPHB3 (human)): 103%
residual activity (STK39 (human)): 94.2%
residual activity (PIM2 (human)): 106%
residual activity (MYLK (human)): 104%
residual activity (AURKB (human)): 102%
residual activity (ACVR1B (human)): 89.5%
residual activity (CDK4 CCND3 (human)): 108%
residual activity (PRKCG (human)): 87.3%
residual activity (CDK9 CCNT1 (human)): 87.8%
residual activity (WEE1 (human)): 93.2%
residual activity (TAOK1 (human)): 97.1%
residual activity (PLK3 (human)): 97.4%
residual activity (MST1R (human)): 92.5%
residual activity (MLTK (human)): 92.7%
residual activity (FGFR2 (human)): 104%
residual activity (MKNK2 (human)): 84.5%
residual activity (SIK2 (human)): 90.7%
residual activity (YES1 (human)): 99.2%
residual activity (NEK1 (human)): 104%
residual activity (STK4 (human)): 106%
residual activity (ERBB4 (human)): 83.3%
residual activity (PRKCA (human)): 113%
residual activity (CHEK1 (human)): 99.4%
residual activity (NEK2 (human)): 110%
residual activity (CLK4 (human)): 98.8%
